Columns and labels:
[1] = test system: herpes simplex virus (HSV) type 1 or type 2; test: Antiviral activity by plaque reduction method; format: cell-based, herpes simplex virus (in rabbit kidney cells); set-up: key: 0 = inactive; +2 = moderate activity; +4 = very active; settings: rabbit kidney cells, plaques counted 3 to 4 days after infection
Description: Determination of Antiviral Activity by Plaque Reduction Method
The inhibitory effect of new compounds upon herpes simplex virus (HSV) type 1 or type 2 was analyzed by the plaque reduction assay. Confluent monolayers of rabbit kidney cells grown in 60 mm plastic petri dishes were infected with HSV by adsorption for 1 hour at room temperature. The appropriate concentration of the test compound was added at the time of initial virus infection. Following virus adsorption the cells were overlayed with Eagle's medium (BME) supplemented with 10% fetal bovine serum, 0.225% NaHCO3 and 0.5% methycellulose. The appropriate concentration of the test compound was also added to this overlay. Infected cultures were then incubated at 37° C. for the remainder of the test. Three to four days following virus infection, each culture was stained with crystal violet and the herpes virus induced plaques counted.

[2] = molecular target: T1, Herpes simplex type 2 deoxyribonucleic acid (DNA) polymerase (Human herpesvirus 2, UniProt P89453); test: Viral DNA polymerase assay; format: biochemical, herpes simplex virus type 2; settings: 50% inhibition of herpes simplex type 2 DNA polymerase; read-out: Concentration (μg/ml) giving 50% Percent Inhibition (converted)
T1 construct: made in house; host or cells: Herpes virus infected Wi-38 cells (native viral enzyme, not recombinant; DEAE-cellulose and phosphocellulose chromatography)
T1 sequence (P89453 1-1240): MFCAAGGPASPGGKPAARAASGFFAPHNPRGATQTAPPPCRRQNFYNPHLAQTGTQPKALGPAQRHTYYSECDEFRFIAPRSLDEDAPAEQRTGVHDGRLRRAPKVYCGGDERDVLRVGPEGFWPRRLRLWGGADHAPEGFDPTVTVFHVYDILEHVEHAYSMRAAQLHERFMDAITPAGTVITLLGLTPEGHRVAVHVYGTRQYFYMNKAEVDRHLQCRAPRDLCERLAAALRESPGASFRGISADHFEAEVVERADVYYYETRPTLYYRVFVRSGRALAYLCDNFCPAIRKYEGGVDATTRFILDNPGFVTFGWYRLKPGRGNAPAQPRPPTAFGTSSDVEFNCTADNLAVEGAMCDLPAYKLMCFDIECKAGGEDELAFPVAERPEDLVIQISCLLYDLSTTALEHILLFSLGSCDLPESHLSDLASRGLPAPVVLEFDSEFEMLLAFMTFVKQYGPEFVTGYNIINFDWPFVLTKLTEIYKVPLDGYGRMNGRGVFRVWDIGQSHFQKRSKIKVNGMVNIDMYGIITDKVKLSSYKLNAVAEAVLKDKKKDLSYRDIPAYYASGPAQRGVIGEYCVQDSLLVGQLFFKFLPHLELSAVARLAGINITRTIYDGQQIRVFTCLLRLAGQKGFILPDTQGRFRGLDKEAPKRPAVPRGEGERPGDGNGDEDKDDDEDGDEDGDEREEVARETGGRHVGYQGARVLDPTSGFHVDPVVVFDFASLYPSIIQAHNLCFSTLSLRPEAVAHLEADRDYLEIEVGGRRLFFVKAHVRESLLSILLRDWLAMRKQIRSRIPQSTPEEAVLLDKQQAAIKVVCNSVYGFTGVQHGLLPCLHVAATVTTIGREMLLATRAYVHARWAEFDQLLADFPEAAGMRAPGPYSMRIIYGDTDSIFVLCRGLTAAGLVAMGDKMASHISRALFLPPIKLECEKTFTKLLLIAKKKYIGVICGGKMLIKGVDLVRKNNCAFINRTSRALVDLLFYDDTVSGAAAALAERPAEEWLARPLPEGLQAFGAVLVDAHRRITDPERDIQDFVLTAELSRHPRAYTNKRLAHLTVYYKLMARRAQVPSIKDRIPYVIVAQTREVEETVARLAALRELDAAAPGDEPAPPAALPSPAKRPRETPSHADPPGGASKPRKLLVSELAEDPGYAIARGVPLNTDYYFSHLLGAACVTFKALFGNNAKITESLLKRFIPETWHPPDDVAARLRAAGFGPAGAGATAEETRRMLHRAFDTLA
Description: Isolation and Purification of Herpes Simplex Type 2 Deoxyribonucleic Acid (DNA) Polymerase
The DNA polymerase was isolated according to the procedure of Smith and Gallo (1972) which involved column chromatography on DEAE-cellulose and phosphocellulose. However, buffer containing 20% glyceryl instead of 10% was used. The final enzyme preparation has a specific activity of 313 unit/mg. for herpes simplex virus type 2.
Viral Deoxyribonucleic Acid (DNA) Polymerase Assay
The reaction mixture (0.2 ml.) contains 10 μM of 2'-deoxyadenosine-5'-triphosphate, 2'-deoxycytidine-5'-triphosphate, 2'-deoxyguanosine-5'-triphosphate, and 2.5 μM tritium labeled thymidine-5'-triphosphate which was appropriately diluted with unlabeled dTTP to give 880 counts per minute per pico-mole, 10 μg of activated calf thymus DNA 50 mM Tris-HCl buffer (pH 8.0), 3mM MgCl2, 100 mM KCl and 1 mM dithiothritol. The amounts of enzyme used in each reaction was chosen to give a linear rate for at least 30 minutes at 37° C. The reaction was terminated by the addition of 3 ml. of cold 5% trichloroacetic acid - 0.01 M sodium pyrophosphate. The acid-insoluble material was collected, washed twice on glass filter discs (Reeve Angel 984-H) and the incorporated ^3 H-dTMP was determined by a liquid scintillation counter.

[3] = test system: herpes simplex infections; test: Topical test against herpes simplex infections in CF mice; format: in vivo; settings: 10 mice per group, topical 2% aqueous solution, 11 applications, 14 day test
Description: The following test was applied to determine the effectiveness of the carboxylic esters of phosphonoacetic acid against herpes simplex infections in mice. The compounds tested included the compounds shown above as II and III. Also included were a standard virus control as well as a normal (no virus) control.
Herpes virus (10^7 TCID50 /ml) was applied topically (0.05 ml) to the denuded skin and impregnated into the dermis with a 24-gauge sterile hypodermic needle. In untreated animals, herpes lesions or vesicles usually develop in 3 to 5 days. The lesions form bands which extend over the denuded area. After approximately 10 days, mice usually develop a paralysis which results in their death. The test was allowed to continue for a total of 14 days.
Some of the animals were treated topically by having the drug applied to the site of infection as a 2% aqueous solution 2 hours after the virus was introduced into the skin, and twice daily for 5 consecutive days. The drug was applied a total of 11 times. A single application of a 2% drug solution delivered approximately 2 mg of material.
The Mann-Whitney "U" Test was used to statistically analyze the herpes infection in mice by making paired comparisons between the treated and untreated virus control groups. […]

SMILES | Inhibition of plaques [1] | IC50 [2] [µM] | No. of Mice Dead [3] | No. of Mice Paralyzed [3]
CCOC(=O)CP(=O)(O)O [Compound II, Ethyl Phosphonoacetate] | +4 | 23.2 | 3 | 2
COC(=O)CP(=O)(O)O [Compound III, Methyl Phosphonoacetate] | +2 | 45.4 | 5 | 2

Source: patent US4092412A, “Treatment of herpes simplex infections” (Abbott Laboratories, priority 1977, dated 1978)
